Reference: patent publication US9029376B2, “Small molecule inhibitors for the treatment or prevention of dengue virus infection” (Siga Technologies, Inc., priority 2008, dated 2015)

tested on: Dengue-2 (Strain New Guinea C); assay: Dengue-2 viral yield assay in Vero cells; type: cell-based; details: Dengue virus, Vero, 48 h, read-out: Activity (anti-dengue 2 viral activity, EC50)
Procedure: Compounds that were active in the primary screen were tested for activity in viral yield assays. […] Vero cells in 12-well plates were infected with dengue-2 virus at a multiplicity of infection (MOI) of 0.1, treated with compound (or DMSO as a control), incubated at 37° C., harvested 48 hours post infection and titered on Vero cells as described above. The EC50 was calculated through ExcelFit. Those compounds with activity below 1 μM are indicated with “A”, those with activity between 1 and 10 μM are indicated with “B”, and those with activity between 10 and 25 μM with “C”.

Q: Which EC50 does the source give for `O=C(CSc1nc2cc(Cl)ccc2o1)N1CCOCC1` [Compound 74, 2-(5-Chloro-benzooxazol-2-ylsulfanyl)-1-morpholin-4-yl-ethanone] here?
A: > 25 µM

Q: Which EC50 does the source give for `CCOc1ccc2nc(SCC(=O)N3CCc4ccccc4C3)sc2c1` [Compound 7, 1-(3,4-Dihydro-1H-isoquinolin-2-yl)-2-(6-ethoxy-benzothiazol-2-ylsulfanyl)-ethanone] here?
A: 1 to 10 µM

Q: How did the EC50 turn out when `O=C(Nc1ccc2nc(SCC(=O)N3CCOCC3)sc2c1)c1ccccc1` [Compound 21, N-[2-(2-Morpholin-4-yl-2-oxo-ethylsulfanyl)-benzothiazol-6-yl]-benzamide] was run?
A: > 25 µM

Q: Which EC50 does the source give for `O=C(Nc1ccc2nc(SCC(=O)N3CCOCC3)sc2c1)c1ccccc1Br` [Compound 20, 2-Bromo-N-[2-(2-morpholin-4-yl-2-oxo-ethylsulfanyl)-benzothiazol-6-yl]-benzamide] here?
A: > 25 µM

Q: With `Cc1cccc(C(=O)Nc2ccc3nc(SCC(=O)N4CCOCC4)sc3c2)c1` [Compound 13, 3-Methyl-N-[2-(2-morpholin-4-yl-2-oxo-ethylsulfanyl)-benzothiazol-6-yl]-benzamide] as the compound, how does the EC50 read?
A: 10 to 25 µM

Q: For `O=C(CSc1nnc(CSc2nc3ccccc3s2)o1)NC1CCCCC1` [Compound 53, 2-[5-(Benzothiazol-2-ylsulfanylmethyl)-[1,3,4]oxadiazol-2-ylsulfanyl]-N-cyclohexyl-acetamide], which EC50 is on record?
A: > 25 µM

Q: For `O=C(CSc1nc2ccccc2[nH]1)N1CCN(c2ccc(F)cc2)CC1` [Compound 8, 2-(1H-Benzoimidazol-2-ylsulfanyl)-1-[4-(4-fluoro-phenyl)-piperazin-1-yl]-ethanone], which EC50 is on record?
A: 1 to 10 µM

Q: Which EC50 does the source give for `Nc1ccc2nc(SCC(=O)N3CCOCC3)sc2c1` [Compound 16, 2-(6-Amino-benzothiazol-2-ylsulfanyl)-1-morpholin-4-yl-ethanone] here?
A: > 25 µM

Q: How did the EC50 turn out when `O=C(CSc1nc2ccccc2o1)N1CCN(c2ccc(Cl)cc2)CC1` [Compound 80, 2-(Benzooxazol-2-ylsulfanyl)-1-[4-(4-chloro-phenyl)-piperazin-1-yl]-ethanone] was run?
A: > 25 µM

Q: With `CCn1c(SCC(=O)N2CCC(C(N)=O)(N3CCCCC3)CC2)nnc1-c1ccccc1` [Compound 69, 1′-[2-(4-Ethyl-5-phenyl-4H-[1,2,4]triazol-3-ylsulfanyl)-acetyl]-[1,4′]bipiperidinyl-4′-carboxylic acid amide] as the compound, how does the EC50 read?
A: > 25 µM

Q: With `O=C(CSc1nc2ccccc2[nH]1)N1CCN(c2ccccc2)CC1` [Compound 46, 2-(1H-Benzoimidazol-2-ylsulfanyl)-1-(4-phenyl-piperazin-1-yl)-ethanone] as the compound, how does the EC50 read?
A: > 25 µM

Q: For `NC(=O)C1CCN(C(=O)CSc2nc3ccccc3[nH]2)CC1` [Compound 68, 1-[2-(1H-Benzoimidazol-2-ylsulfanyl)-acetyl]-piperidine-4-carboxylic acid amide], which EC50 is on record?
A: > 25 µM

Q: For `O=C(O)c1ccc2oc(SCC(=O)N3CCCCC3)nc2c1` [Compound 48, 2-(2-oxo-2-piperidin-1-yl-ethylsulfanyl)-benzooxazole-5-carboxylic acid], which EC50 is on record?
A: > 25 µM

same assay, conditions: Dengue virus; Dengue-2 strain New Guinea C, Vero cells, MOI 0.1, harvested 48 hours post infection, viral yield; read-out: Activity (anti-dengue 2 viral activity, EC50)

Q: For `O=C(CSc1nc2ccccc2n1-c1ccccc1)N1CCN(c2ccccc2)CC1` [Compound 51, 2-(1-Phenyl-1H-benzoimidazol-2-ylsulfanyl)-1-(4-phenyl-piperazin-1-yl)-ethanone], which EC50 is on record?
A: > 25 µM

Q: With `Nc1ccc2nc(SCC(=O)Nc3ccc4nc(SCC(=O)N5CCOCC5)sc4c3)sc2c1` [Compound 31, 2-(6-Amino-benzothiazol-2-ylsulfanyl)-N-[2-(2-morpholin-4-yl-2-oxo-ethylsulfanyl)-benzothiazol-6-yl]-acetamide] as the compound, how does the EC50 read?
A: > 25 µM

Q: `CCC(=O)Nc1ccc2nc(SCC(=O)N3CCCCC3)sc2c1` [Compound 2, N-[2-(2-oxo-2-piperidin-1-yl-ethylsulfanyl)-benzothiazol-6-yl]-propionamide] was tested. Which EC50 did it give?
A: < 1 µM

Q: How did the EC50 turn out when `O=C(Nc1ccc2nc(SCC(=O)N3CCCC3)sc2c1)c1ccc(Cl)cc1` [Compound 58, 4-Chloro-N-[2-(2-oxo-2-pyrrolidin-1-yl-ethylsulfanyl)-benzothiazol-6-yl]-benzamide] was run?
A: > 25 µM

Q: How did the EC50 turn out when `O=C(CSc1nc2ccccc2s1)N1CCN(c2ccc(F)cc2)CC1` [Compound 71, 2-(Benzothiazol-2-ylsulfanyl)-1-[4-(4-fluoro-phenyl)-piperazin-1-yl]-ethanone] was run?
A: > 25 µM

Q: With `O=C(CSc1nc2ccc(/N=C/c3ccc(I)cc3)cc2s1)N1CCOCC1` [Compound 25, 2-(6-{[1-(4-Iodo-phenyl)-meth-(E)-ylidene]-amino}-benzothiazol-2-ylsulfanyl)-1-morpholin-4-yl-ethanone] as the compound, how does the EC50 read?
A: > 25 µM

Q: Which EC50 does the source give for `O=C(CSc1nc2ccc([N+](=O)[O-])cc2s1)N1CCN(c2cccc(Cl)c2)CC1` [Compound 73, 1-[4-(3-Chloro-phenyl)-piperazin-1-yl]-2-(6-nitro-benzothiazol-2-ylsulfanyl)-ethanone] here?
A: > 25 µM

Q: How did the EC50 turn out when `O=C(CSc1nc2ccccc2s1)Nc1ccc2nc(SCC(=O)N3CCOCC3)sc2c1` [Compound 34, 2-(Benzothiazol-2-ylsulfanyl)-N-[2-(2-morpholin-4-yl-2-oxo-ethylsulfanyl)-benzothiazol-6-yl]-acetamide] was run?
A: > 25 µM

Q: With `NC(=O)C1CCN(C(=O)CSc2nc3ccccc3o2)CC1` [Compound 67, 1-[2-(Benzooxazol-2-ylsulfanyl)-acetyl]-piperidine-4-carboxylic acid amide] as the compound, how does the EC50 read?
A: > 25 µM

Q: `O=C(Nc1ccc2nc(SCC(=O)N3CCOCC3)sc2c1)c1ccc(Cl)c(Cl)c1` [Compound 29, 3,4-Dichloro-N-[2-(2-morpholin-4-yl-2-oxo-ethylsulfanyl)-benzothiazol-6-yl]-benzamide] was tested. Which EC50 did it give?
A: > 25 µM

Q: Which EC50 does the source give for `CC(=O)Nc1ccc2nc(SCC(=O)N3CCN(c4ccccc4)CC3)sc2c1` [Compound 57, N-{2-[2-Oxo-2-(4-phenyl-piperazin-1-yl)-ethylsulfanyl]-benzothiazol-6-yl}-acetamide] here?
A: > 25 µM

Q: Which EC50 does the source give for `Cn1ccnc1SCC(=O)Nc1ccc2nc(SCC(=O)N3CCOCC3)sc2c1` [Compound 33, 2-(1-Methyl-1H-imidazol-2-ylsulfanyl)-N-[2-(2-morpholin-4-yl-2-oxo-ethylsulfanyl)-benzothiazol-6-yl]-acetamide] here?
A: > 25 µM

Q: With `Cc1cccc(C)c1NC(=O)Cn1c(SCC(N)=O)nc2ccccc21` [Compound 79, 2-{1-[(2,6-Dimethyl-phenylcarbamoyl)-methyl]-1H-benzoimidazol-2-ylsulfanyl}-acetamide] as the compound, how does the EC50 read?
A: > 25 µM

Q: For `CCN(CC)C(=O)CSc1nc2ccccc2n1C(=O)NC1CCCCC1` [Compound 15, 2-Diethylcarbamoylmethylsulfanyl-benzoimidazole-1-carboxylic acid cyclohexylamide], which EC50 is on record?
A: > 25 µM

Q: Which EC50 does the source give for `O=C(CSc1nnc(-c2ccccc2)n1-c1ccccc1)Nc1ccc2nc(SCC(=O)N3CCOCC3)sc2c1` [Compound 35, 2-(4,5-Diphenyl-4H-[1,2,4]triazol-3-ylsulfanyl)-N-[2-(2-morpholin-4-yl-2-oxo-ethylsulfanyl)-benzothiazol-6-yl]-acetamide] here?
A: > 25 µM

Q: For `O=C(Nc1ccc2nc(SCC(=O)N3CCCC3)sc2c1)c1ccccc1Br` [Compound 65, 2-Bromo-N-[2-(2-oxo-2-pyrrolidin-1-yl-ethylsulfanyl)-benzothiazol-6-yl]-benzamide], which EC50 is on record?
A: > 25 µM

Q: For `O=C(CSc1nc2ccc(/N=C/c3ccc(Br)cc3)cc2s1)N1CCOCC1` [Compound 17, 2-(6-{[1-(4-Bromo-phenyl)-meth-(E)-ylidene]-amino}-benzothiazol-2-ylsulfanyl)-1-morpholin-4-yl-ethanone], which EC50 is on record?
A: > 25 µM

Q: For `O=C(CSc1nc2ccc(/N=C/c3c(Cl)cccc3Cl)cc2s1)N1CCOCC1` [Compound 24, 2-(6-{[1-(2,6-Dichloro-phenyl)-meth-(E)-ylidene]-amino}-benzothiazol-2-ylsulfanyl)-1-morpholin-4-yl-ethanone], which EC50 is on record?
A: > 25 µM

Q: `O=C(CSc1nc2ccc([N+](=O)[O-])cc2s1)N1CCCCC1` [Compound 49, 2-(6-Nitro-benzothiazol-2-ylsulfanyl)-1-piperidin-1-yl-ethanone] was tested. Which EC50 did it give?
A: > 25 µM

Q: How did the EC50 turn out when `O=C(CSc1nc2ccccc2s1)N1CCCC1` [Compound 63, 2-(Benzothiazol-2-ylsulfanyl)-1-pyrrolidin-1-yl-ethanone] was run?
A: > 25 µM

Q: For `O=C(CSc1nc2ccccc2s1)N1CCN(c2nc3ccccc3s2)CC1` [Compound 50, 1-(4-Benzothiazol-2-yl-piperazin-1-yl)-2-(benzothiazol-2-ylsulfanyl)-ethanone], which EC50 is on record?
A: > 25 µM

Q: `Cc1ccc(-c2nnc(N3CCN(C(=O)CSc4nc5ccccc5o4)CC3)c3ccccc23)cc1` [Compound 78, 2-(Benzooxazol-2-ylsulfanyl)-1-[4-(4-p-tolyl-phthalazin-1-yl)-piperazin-1-yl]-ethanone] was tested. Which EC50 did it give?
A: > 25 µM

Q: With `O=C(CCc1ccccc1)Nc1ccc2nc(SCC(=O)N3CCOCC3)sc2c1` [Compound 1, N-[2-(2-Morpholin-4-yl-2-oxo-ethylsulfanyl)-benzothiazol-6-yl]-3-phenyl-propionamide] as the compound, how does the EC50 read?
A: < 1 µM

Q: With `O=C(CSc1nc2ccc(/N=C/c3ccc(Sc4nnnn4-c4ccccc4)o3)cc2s1)N1CCOCC1` [Compound 23, 1-Morpholin-4-yl-2-(6-{[1-[5-(1-phenyl-1H-tetrazol-5-ylsulfanyl)-furan-2-yl]-meth-(E)-ylidene]-amino}-benzothiazol-2-ylsulfanyl)-ethanone] as the compound, how does the EC50 read?
A: > 25 µM

Q: Which EC50 does the source give for `O=C(CSc1nc2ccc([N+](=O)[O-])cc2s1)N1CCN(c2ccccc2)CC1` [Compound 52, 2-(6-Nitro-benzothiazol-2-ylsulfanyl)-1-(4-phenyl-piperazin-1-yl)-ethanone] here?
A: > 25 µM

Q: How did the EC50 turn out when `O=C(CSc1nc2ccccc2o1)N1CCc2ccccc2C1` [Compound 47, 2-(Benzooxazol-2-ylsulfanyl)-1-(3,4-dihydro-1H-isoquinolin-2-yl)-ethanone] was run?
A: > 25 µM

Q: For `CCCCOc1ccc(C(=O)Nc2ccc3nc(SCC(=O)N4CCOCC4)sc3c2)cc1` [Compound 22, 4-Butoxy-N-[2-(2-morpholin-4-yl-2-oxo-ethylsulfanyl)-benzothiazol-6-yl]-benzamide], which EC50 is on record?
A: > 25 µM
